From ChEMBL document CHEMBL4422646, “Synthesis and biological evaluation of 3-amino-, 3-alkoxy- and 3-aryloxy-6-(hetero)arylpyridazines as potent antitumor agents” (Bioorg Med Chem Lett, 2019)
Active and inactive are the calls of the source. The rule behind the calls is not given here.

Columns and labels:
Huh-7 [1] = experiment: Antiproliferative activity against human HuH7 cells after 48 hrs by Hoechst 33342 staining-based assay; assay type: functional, cell-based; conditions: Huh-7, 48 h
Caco-2 = experiment: Antiproliferative activity against human Caco2 cells after 48 hrs by Hoechst 33342 staining-based assay; assay type: functional, cell-based; conditions: Caco-2, 48 h
MDA-MB-231 [2] = experiment: Antiproliferative activity against human MDA-MB-231 cells after 48 hrs by Hoechst 33342 staining-based assay; assay type: functional, cell-based; conditions: MDA-MB-231, 48 h
HCT-116 [3] = experiment: Antiproliferative activity against human HCT116 cells after 48 hrs by Hoechst 33342 staining-based assay; assay type: functional, cell-based; conditions: HCT-116, 48 h
PC-3 [4] = experiment: Antiproliferative activity against human PC3 cells after 48 hrs by Hoechst 33342 staining-based assay; assay type: functional, cell-based; conditions: PC-3, 48 h
NCI-H727 [5] = experiment: Antiproliferative activity against human NCI-H727 cells after 48 hrs by Hoechst 33342 staining-based assay; assay type: functional, cell-based; conditions: NCI-H727, 48 h
Fibroblast [6] = experiment: Antiproliferative activity against human fibroblast cells after 48 hrs by Hoechst 33342 staining-based assay; assay type: cell-based
[7] = target: Mitogen-activated protein kinase; ERK1/ERK2 (Homo sapiens) (UniProt P27361+P28482); experiment: Inhibition of EGF-stimulated p44/42 phosphorylation in human MDA-MB-468-Luc cells at 10^-5 M pre-incubated for 1 hr before EGF stimulation for 15 mins by Western blot analysis relative to control; assay type: cell-based
Mitogen-activated protein kinase; ERK1/ERK2 (Homo sapiens), sequence (P27361 whole entry, looked up): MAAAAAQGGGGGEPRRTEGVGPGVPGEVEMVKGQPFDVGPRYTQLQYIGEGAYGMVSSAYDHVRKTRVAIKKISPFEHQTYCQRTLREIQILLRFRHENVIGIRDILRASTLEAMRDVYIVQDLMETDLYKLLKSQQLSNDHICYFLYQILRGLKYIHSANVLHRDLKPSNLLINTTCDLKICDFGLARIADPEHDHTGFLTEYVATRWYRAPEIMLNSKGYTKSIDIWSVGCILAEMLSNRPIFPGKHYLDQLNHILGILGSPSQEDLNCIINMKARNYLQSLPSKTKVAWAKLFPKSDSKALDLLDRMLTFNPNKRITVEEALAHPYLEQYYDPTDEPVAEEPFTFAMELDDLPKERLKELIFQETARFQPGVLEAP
Mitogen-activated protein kinase; ERK1/ERK2 (Homo sapiens), sequence (P28482 whole entry, looked up): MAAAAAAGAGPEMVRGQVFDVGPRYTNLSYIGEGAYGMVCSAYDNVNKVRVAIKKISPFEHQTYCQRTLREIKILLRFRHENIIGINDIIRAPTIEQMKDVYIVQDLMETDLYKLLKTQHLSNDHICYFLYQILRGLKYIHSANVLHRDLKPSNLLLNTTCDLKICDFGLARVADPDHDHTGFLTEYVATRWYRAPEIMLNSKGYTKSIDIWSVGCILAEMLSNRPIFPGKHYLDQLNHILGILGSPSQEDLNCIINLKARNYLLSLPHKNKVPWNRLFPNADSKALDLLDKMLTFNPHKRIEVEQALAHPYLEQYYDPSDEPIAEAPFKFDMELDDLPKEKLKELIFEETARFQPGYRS

[8] = target: RAC-alpha serine/threonine-protein kinase (Homo sapiens) (UniProt P31749); experiment: Inhibition of EGF-stimulated Akt phosphorylation in human MDA-MB-468-Luc cells at 10^-5 M pre-incubated for 1 hr before EGF stimulation for 15 mins by Western blot analysis relative to control; assay type: cell-based
RAC-alpha serine/threonine-protein kinase (Homo sapiens), sequence (P31749 whole entry): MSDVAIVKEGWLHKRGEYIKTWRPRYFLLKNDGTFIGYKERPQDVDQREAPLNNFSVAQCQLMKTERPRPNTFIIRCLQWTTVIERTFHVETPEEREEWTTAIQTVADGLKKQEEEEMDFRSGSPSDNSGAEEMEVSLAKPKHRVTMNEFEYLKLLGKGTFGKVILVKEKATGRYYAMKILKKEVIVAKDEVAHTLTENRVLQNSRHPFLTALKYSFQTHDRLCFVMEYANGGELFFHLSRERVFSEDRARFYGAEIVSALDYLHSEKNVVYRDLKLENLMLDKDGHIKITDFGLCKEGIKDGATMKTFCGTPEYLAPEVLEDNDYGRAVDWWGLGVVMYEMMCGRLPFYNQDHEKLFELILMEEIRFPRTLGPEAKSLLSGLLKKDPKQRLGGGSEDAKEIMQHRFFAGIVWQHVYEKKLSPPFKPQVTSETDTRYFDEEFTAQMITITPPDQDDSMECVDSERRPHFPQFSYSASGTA

MDA-MB-468 = experiment: Anticlonogenic activity against human MDA-MB-468 cells harboring luciferase reporter gene after 2 weeks by Giemsa staining-based assay; assay type: functional, cell-based; conditions: MDA-MB-468, 336 h
Huh-7 [9] = experiment: Antiproliferative activity against human HuH7 cells at 0.1 to 25 uM after 48 hrs by Hoechst 33342 staining-based assay relative to control; assay type: functional
MDA-MB-231 [10] = experiment: Antiproliferative activity against human MDA-MB-231 cells at 0.1 to 25 uM after 48 hrs by Hoechst 33342 staining-based assay relative to control; assay type: functional
HCT-116 [11] = experiment: Antiproliferative activity against human HCT116 cells at 0.1 to 25 uM after 48 hrs by Hoechst 33342 staining-based assay relative to control; assay type: functional
PC-3 [12] = experiment: Antiproliferative activity against human PC3 cells at 0.1 to 25 uM after 48 hrs by Hoechst 33342 staining-based assay relative to control; assay type: functional
NCI-H727 [13] = experiment: Antiproliferative activity against human NCI-H727 cells at 0.1 to 25 uM after 48 hrs by Hoechst 33342 staining-based assay relative to control; assay type: functional
HaCaT [14] = experiment: Antiproliferative activity against human HaCaT cells after 48 hrs by Hoechst 33342 staining-based assay; assay type: cell-based
HaCaT [15] = experiment: Antiproliferative activity against human HaCaT cells at 0.1 to 25 uM after 48 hrs by Hoechst 33342 staining-based assay relative to control; assay type: cell-based
Fibroblast [16] = experiment: Antiproliferative activity against human fibroblast cells at 0.1 to 25 uM after 48 hrs by Hoechst 33342 staining-based assay relative to control; assay type: cell-based
HepaRG = experiment: Hepatotoxicity in human HepaRG cells at 2.5 uM after 48 hrs; assay type: toxicity, cell-based
[17] = Toxicity in zebrafish embryos assessed as alive embryo at 0.8 uM after 72 hrs; design: species or system Danio rerio; conditions: in vivo
[18] = Toxicity in zebrafish embryos assessed as effect on embryo mobility at 0.8 uM after 72 hrs; design: species or system Danio rerio; conditions: in vivo
[19] = Toxicity in zebrafish embryos assessed as effect on embryo development at 0.8 uM after 72 hrs; design: species or system Danio rerio; conditions: in vivo
[20] = Toxicity in zebrafish embryos at 2.5 uM after 72 hrs; design: species or system Danio rerio; conditions: in vivo
[21] = Toxicity in zebrafish embryos assessed as reduction in eye size at 0.8 uM after 72 hrs; design: species or system Danio rerio; conditions: in vivo
[22] = Toxicity in zebrafish embryos assessed as reduction in eye size at 2.5 uM after 72 hrs; design: species or system Danio rerio; conditions: in vivo

| Compound | IC50 (Huh-7 [1]) | IC50 (Caco-2) | IC50 (MDA-MB-231 [2]) | IC50 (HCT-116 [3]) | IC50 (PC-3 [4]) | IC50 (NCI-H727 [5]) | inhibition [7] | inhibition [8] | IC50 (MDA-MB-468) | IC50 (Fibroblast [6]) | Activity (Huh-7 [9]) | Activity (MDA-MB-231 [10]) | Activity (HCT-116 [11]) | Activity (PC-3 [12]) | Activity (NCI-H727 [13]) | IC50 (HaCaT [14]) | Activity (HaCaT [15]) | Activity (Fibroblast [16]) | also measured |
| --- | --- | --- | --- | --- | --- | --- | --- | --- | --- | --- | --- | --- | --- | --- | --- | --- | --- | --- | --- |
| CCOC(=O)c1ccc(-c2ccc(N(CC)CC)nn2)cc1 | 9000 nM | 4000 nM | 1500 nM | 500 nM | 1000 nM | 1500 nM | 70% | Active | 120 nM | 3000 nM | 60% | 70% | 90% | 80% | 60% | 500 nM | 80% | 40% | Activity (HepaRG): Non-Toxic; Activity [17]: Non-Toxic; Activity [18]: Non-Toxic; Activity [19]: Non-Toxic; Activity [20]: Toxic |
| CCOC(=O)c1cccc(-c2ccc(N(CC)CC)nn2)c1 | > 25000 nM | > 25000 nM | > 25000 nM | > 25000 nM | > 25000 nM | 30000 nM | – | – | – | > 25000 nM | – | – | – | – | 40% | > 25000 nM | – | – | – |
| CC[C@H](CO)Nc1nc(NCc2ccccc2)c2ncn(C(C)C)c2n1 [SELICICLIB] | 20000 nM | – | – | 9000 nM | 12000 nM | – | – | – | – | 12000 nM | 90% | 80% | 100% | 8% | 40% | 12000 nM | 80% | 40% | – |
| CCN(CC)c1ccc(-c2ccc(C(=O)OC)cc2)nn1 | 90 nM | 250 nM | 140 nM | 60 nM | 90 nM | 90 nM | 70% | > 70% | 15 nM | 100 nM | 60% | 60% | 100% | 72% | 60% | 80 nM | 85% | 40% | Activity (HepaRG): Non-Toxic; Activity [17]: Non-Toxic; Activity [18]: Non-Toxic; Activity [19]: Non-Toxic; Activity [21]: Non-Toxic; Activity [22]: Toxic; Activity [20]: Toxic |
| CCN(CC)c1ccc(-c2ccc(C(C)=O)cc2)nn1 | 25000 nM | 15000 nM | 5000 nM | 6000 nM | > 25000 nM | 25000 nM | < 50% | – | 650 nM | > 25000 nM | 80% | 60% | 100% | – | 80% | 20000 nM | 80% | – | – |

More lines, main results first:

| IC50 (Huh-7 [1]) | IC50 (Caco-2) | IC50 (MDA-MB-231 [2]) | IC50 (HCT-116 [3]) | IC50 (PC-3 [4]) | IC50 (NCI-H727 [5]) | inhibition [7] | inhibition [8] | IC50 (MDA-MB-468) | Compound | IC50 (Fibroblast [6]) | Activity (Huh-7 [9]) | Activity (MDA-MB-231 [10]) | Activity (HCT-116 [11]) | Activity (PC-3 [12]) | Activity (NCI-H727 [13]) | IC50 (HaCaT [14]) | Activity (HaCaT [15]) | Activity (Fibroblast [16]) | also measured |
| --- | --- | --- | --- | --- | --- | --- | --- | --- | --- | --- | --- | --- | --- | --- | --- | --- | --- | --- | --- |
| > 25000 nM | > 25000 nM | > 25000 nM | > 25000 nM | > 25000 nM | > 25000 nM | inactive | inactive | 3500 nM | COC(=O)c1ccc(-c2ccc(N(C)C)nn2)cc1 | > 25000 nM | – | – | – | – | – | – | – | – | – |
| 30 nM | 90 nM | 12 nM | 50 nM | 80 nM | 30 nM | – | – | – | COc1cccc2c1C(=O)c1c(O)c3c(c(O)c1C2=O)C[C@@](O)(C(=O)CO)C[C@@H]3O[C@H]1C[C@H](N)[C@H](O)[C@H](C)O1 [DOXORUBICIN] | 5 nM | 40% | 50% | 80% | 80% | 60% | 30 nM | 70% | 40% | – |
| 12 nM | – | 60 nM | < 1 nM | < 1 nM | – | – | – | – | CC(=O)O[C@H]1C(=O)[C@@]2(C)[C@H]([C@H](OC(=O)c3ccccc3)[C@]3(O)C[C@H](OC(=O)[C@H](O)[C@@H](NC(=O)c4ccccc4)c4ccccc4)C(C)=C1C3(C)C)[C@]1(OC(C)=O)CO[C@@H]1C[C@@H]2O [PACLITAXEL] | < 1 nM | 50% | 60% | 90% | 60% | – | 2 nM | 70% | 30% | – |
| > 25000 nM | > 25000 nM | > 25000 nM | > 25000 nM | > 25000 nM | > 25000 nM | inactive | inactive | 26000 nM | CCOC(=O)c1ccc(-c2ccc(N(C)C)nn2)cc1 | > 25000 nM | – | – | – | – | – | – | – | – | – |
